Assay results reported in US20250288683A1, “TETRAHYDROISOQUINOLINE HETEROBIFUNCTIONAL BCL-XL DEGRADERS” (Treeline Biosciences, Inc., priority 2022, published 2025).

Target: T1, Human BCL-XL protein (N-terminal HiBiT tagged BCL-XL in HT1080 cells) (Homo sapiens, UniProt Q07817)
T1 construct: expressed in transfected cells; host or cells: HT-1080 (ATCC CCL-121), stably transduced with lentivirus pLV-UBC-N-HiBiT-BCL-XL-PGK-puro and selected with puromycin
Assay: HiBiT based degradation assay
Format: cell-based
Conditions: HT1080 cells expressing N-terminal HiBiT tagged BCL-XL, normalized with DMSO control
Excerpt: HiBiT Based Degradation Assay
Human BCL-XL protein coding open reading frame fused with N-terminal HiBiT coding sequence was synthesized from Integrated DNA Technologies (IDT). Next, N-HiBiT-BCL-XL sequence was cloned into pLV-UBC-PGK-Puro, a lentivirus plasmid purchased from Vectorbuilder, to generate pLV-UBC-N-HiBiT-BCL-XL-PGK-puro. Lentiviral particles were generated from Lenti-X™ 293T cells (Clontech) by co-transfection of pLV-UBC-N-HiBiT-BCL-XL-PGK-puro plasmids and lentiviral packaging plasmid mix (Cellecta). HT-1080 [HT1080](ATCC CCL-121) cells were infected with the lentivirus, and HT1080 cells stably integrated with the lentiviral vectors were established by incubation with 1 μg/mL puromycin (Thermofisher).
HT1080 cells expressing N-terminal HiBiT tagged BCL-XL were dispensed into a 384-well plate pre-spotted with compounds at varying concentrations. Three thousand cells were seeded into each well in 40 μL of RPMI 1640 media. […] After incubation, luminescence was read on a PHERAstar FSX Plate Reader (BMG). BCL-XL degradation at each indicated concentration was normalized with the DMSO control. The BCL-XL degradation curves were plotted using a four-parameter logistic model. For compounds displaying hook effects, the curve fitting was performed using the bottom point of the hook curves (i.e., the point of Ymin) as the bottom plateau to calculate EC50.

T1 sequence (Q07817 whole entry): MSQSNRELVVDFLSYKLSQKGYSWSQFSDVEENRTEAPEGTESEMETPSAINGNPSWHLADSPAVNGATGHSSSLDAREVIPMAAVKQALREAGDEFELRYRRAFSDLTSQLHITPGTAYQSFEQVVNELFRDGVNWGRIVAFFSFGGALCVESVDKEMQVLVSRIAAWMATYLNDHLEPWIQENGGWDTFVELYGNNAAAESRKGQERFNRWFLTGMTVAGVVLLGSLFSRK

SMILES | Ymin (24 h) | Ymin (6 h)
Cc1ncsc1-c1ccc([C@H](C)NC(=O)[C@@H]2C[C@@H](O)CN2C(=O)[C@@H](NC(=O)CC(C)Cc2ccc(Oc3cccc(-c4ccc(N5CCc6cccc(C(=O)Nc7nc8ccccc8s7)c6C5)nc4C(=O)O)c3C)cc2)C(C)(C)C)cc1 (single isomer, unassigned) [Compound 134b, 6-(8-(benzo[d]thiazol-2-ylcarbamoyl)-3,4-dihydroisoquinolin-2(1H)-yl)-3-(3-(4-((R*)-4-(((S)-1-((2S,4R)-4-hydroxy-2-(((S)-1-(4-(4-methylthiazol-5-yl)phenyl)ethyl)carbamoyl)pyrrolidin-1-yl)-3,3-dimethyl-1-oxobutan-2-yl)amino)-2-methyl-4-oxobutyl)phenoxy)-2-methylphenyl)picolinic acid] | A (Ymin < 50%) | –
Cc1ncsc1-c1ccc([C@H](C)NC(=O)[C@@H]2C[C@@H](O)CN2C(=O)[C@@H](NC(=O)Cc2ccc(Oc3cccc(-c4ccc(N5CCc6cccc(C(=O)Nc7nc8ccccc8s7)c6C5)nc4C(=O)O)c3C)cc2)C(C)(C)C)cc1 [Compound 113a, 6-[8-(1,3-benzothiazol-2-ylcarbamoyl)-3,4-dihydro-1H-isoquinolin-2-yl]-3-[3-[4-[2-[[(1S)-1-[(2S,4R)-4-hydroxy-2-[[(1S)-1-[4-(4-methylthiazol-5-yl)phenyl]ethyl]carbamoyl]pyrrolidine-1-carbonyl]-2,2-dimethyl-propyl]amino]-2-oxo-ethyl]phenoxy]-2-methyl-phenyl]pyridine-2-carboxylic acid] | A (Ymin < 50%) | A (Ymin < 50%)
Cc1ncsc1-c1ccc([C@H](C)NC(=O)[C@@H]2C[C@@H](O)CN2C(=O)[C@@H](NC(=O)C(C)(C)[C@H]2CC[C@H](Oc3cccc(-c4ccc(N5CCc6cccc(C(=O)Nc7nc8ccccc8s7)c6C5)nc4C(=O)O)c3C)CC2)C(C)(C)C)cc1 (single isomer, unassigned) [Compound 138b] | C (Ymin ≥ 70%) | –
Cc1ncsc1-c1ccc([C@H](C)NC(=O)[C@@H]2C[C@@H](O)CN2C(=O)[C@@H](NC(=O)CC[C@@H](c2ccc(Oc3cccc(-c4ccc(N5CCc6cccc(C(=O)Nc7nc8ccccc8s7)c6C5)nc4C(=O)O)c3C)cc2)C(F)(F)F)C(C)(C)C)cc1 (relative stereo) [Compound 135a, 6-(8-(benzo[d]thiazol-2-ylcarbamoyl)-3,4-dihydroisoquinolin-2 (1H)-yl)-3-(2-methyl-3-(4-((S)-1,1,1-trifluoro-5-(((S)-1-((2S,4R)-4-hydroxy-2-(((S)-1-(4-(4-methylthiazol-5-yl)phenyl)ethyl)carbamoyl)pyrrolidin-1-yl)-3,3-dimethyl-1-oxobutan-2-yl)amino)-5-oxopentan-2-yl)phenoxy)phenyl)picolinic acid] | A (Ymin < 50%) | –
Cc1ncsc1-c1ccc([C@H](C)NC(=O)[C@@H]2C[C@@H](O)CN2C(=O)[C@@H](NC(=O)CCCCCCCOc2cccc(-c3ccc(N4CCc5cccc(C(=O)Nc6nc7ccccc7s6)c5C4)nc3C(=O)O)c2C)C(C)(C)C)cc1 [Compound 107a, 6-[8-(1,3-benzothiazol-2-ylcarbamoyl)-3,4-dihydro-1H-isoquinolin-2-yl]-3-[3-[8-[[(1S)-1-[(2S,4R)-4-hydroxy-2-[[(1S)-1-[4-(4-methylthiazol-5-yl)phenyl]ethyl]carbamoyl]pyrrolidine-1-carbonyl]-2,2-dimethyl-propyl]amino]-8-oxo-octoxy]-2-methyl-phenyl]pyridine-2-carboxylic acid] | – | B (50% ≤ Ymin < 70%)
Cc1ncsc1-c1ccc([C@H](C)NC(=O)[C@@H]2C[C@@H](O)CN2C(=O)[C@@H](NC(=O)CC[C@H](C)c2ccc(Oc3cccc(-c4ccc(N5CCc6cccc(C(=O)Nc7nc8ccccc8s7)c6C5)nc4C(=O)O)c3C)cc2)C(C)(C)C)cc1 (single isomer, unassigned) [Compound 129a] | A (Ymin < 50%) | –
Cc1ncsc1-c1ccc([C@H](C)NC(=O)[C@@H]2C[C@@H](O)CN2C(=O)[C@@H](NC(=O)C(F)(F)C[C@H]2CC[C@H](Oc3cccc(-c4ccc(N5CCc6cccc(C(=O)Nc7nc8ccccc8s7)c6C5)nc4C(=O)O)c3C)CC2)C(C)(C)C)cc1 [Compound 117a, 6-(8-(benzo[d]thiazol-2-ylcarbamoyl)-3,4-dihydroisoquinolin-2 (1H)-yl)-3-(3-(((1S,4r)-4-(2,2-difluoro-3-(((S)-1-((2S,4R)-4-hydroxy-2-(((S)-1-(4-(4-methylthiazol-5-yl)phenyl)ethyl)carbamoyl)pyrrolidin-1-yl)-3,3-dimethyl-1-oxobutan-2-yl)amino)-3-oxopropyl)cyclohexyl)oxy)-2-methylphenyl)picolinic acid] | B (50% ≤ Ymin < 70%) | –
Cc1ncsc1-c1ccc([C@H](C)NC(=O)[C@@H]2C[C@@H](O)CN2C(=O)[C@@H](NC(=O)C[C@@H](C)Cc2ccc(Oc3cccc(-c4ccc(N5CCc6cccc(C(=O)Nc7nc8ccccc8s7)c6C5)nc4C(=O)O)c3C)cc2)C(C)(C)C)cc1 (relative stereo) [Compound 134a, 6-[8-(1,3-benzothiazol-2-ylcarbamoyl)-3,4-dihydro-1H-isoquinolin-2-yl]-3-[3-[4-[(2S)-4-[[(1S)-1-[(2S,4R)-4-hydroxy-2-[[(1S)-1-[4-(4-methylthiazol-5-yl)phenyl]ethyl]carbamoyl]pyrrolidine-1-carbonyl]-2,2-dimethyl-propyl]amino]-2-methyl-4-oxo-butyl]phenoxy]-2-methyl-phenyl]pyridine-2-carboxylic acid] | A (Ymin < 50%) | –
Cc1ncsc1-c1ccc([C@H](C)NC(=O)[C@@H]2C[C@@H](O)CN2C(=O)[C@@H](NC(=O)CCc2ccc(Oc3cccc(-c4ccc(N5CCc6cccc(C(=O)Nc7nc8ccccc8s7)c6C5)nc4C(=O)O)c3C)cc2)C(C)(C)C)cc1 [Compound 112a, 6-[8-(1,3-benzothiazol-2-ylcarbamoyl)-3,4-dihydro-1H-isoquinolin-2-yl]-3-[3-[4-[3-[[(1S)-1-[(2S, 4R)-4-hydroxy-2-[[(1S)-1-[4-(4-methylthiazol-5-yl)phenyl]ethyl]carbamoyl]pyrrolidine-1-carbonyl]-2,2-dimethyl-propyl]amino]-3-oxo-propyl]phenoxy]-2-methyl-phenyl]pyridine-2-carboxylic acid] | B (50% ≤ Ymin < 70%) | B (50% ≤ Ymin < 70%)

Next, values leading:

Ymin (24 h) | Ymin (6 h) | SMILES
A (Ymin < 50%) | – | Cc1ncsc1-c1ccc([C@H](C)NC(=O)[C@@H]2C[C@@H](O)CN2C(=O)[C@@H](NC(=O)CN2CCC(CCOc3cccc(-c4ccc(N5CCc6cccc(C(=O)Nc7nc8ccccc8s7)c6C5)nc4C(=O)O)c3C)CC2)C(C)(C)C)cc1 [Compound 123a, 6-(8-(benzo[d]thiazol-2-ylcarbamoyl)-3,4-dihydroisoquinolin-2 (1H)-yl)-3-(3-(2-(1-(2-(((S)-1-((2S,4R)-4-hydroxy-2-(((S)-1-(4-(4-methylthiazol-5-yl)phenyl)ethyl)carbamoyl)pyrrolidin-1-yl)-3,3-dimethyl-1-oxobutan-2-yl)amino)-2-oxoethyl)piperidin-4-yl)ethoxy)-2-methylphenyl)picolinic acid]
A (Ymin < 50%) | – | Cc1ncsc1-c1ccc([C@@H](NC(=O)[C@@H]2C[C@@H](O)CN2C(=O)[C@@H](NC(=O)C[C@H]2CC[C@H](Oc3cccc(-c4ccc(N5CCc6cccc(C(=O)Nc7nc8ccccc8s7)c6C5)nc4C(=O)O)c3C)CC2)C(C)(C)C)C(F)(F)F)cc1 [Compound 125a, 6-(8-(benzo[d]thiazol-2-ylcarbamoyl)-3,4-dihydroisoquinolin-2 (1H)-yl)-3-(3-(((1S,4r)-4-(2-(((S)-1-((2S,4R)-4-hydroxy-2-(((R)-2,2,2-trifluoro-1-(4-(4-methylthiazol-5-yl)phenyl)ethyl)carbamoyl)pyrrolidin-1-yl)-3,3-dimethyl-1-oxobutan-2-yl)amino)-2-oxoethyl)cyclohexyl)oxy)-2-methylphenyl)picolinic acid]
A (Ymin < 50%) | A (Ymin < 50%) | Cc1ncsc1-c1ccc([C@H](C)NC(=O)[C@@H]2C[C@@H](O)CN2C(=O)[C@@H](NC(=O)CCCCCCOc2cccc(-c3ccc(N4CCc5cccc(C(=O)Nc6nc7ccccc7s6)c5C4)nc3C(=O)O)c2C)C(C)(C)C)cc1 [Compound 106a, 6-(8-(benzo[d]thiazol-2-ylcarbamoyl)-3,4-dihydroisoquinolin-2(1H)-yl)-3-(3-((7-(((S)-1-((2S,4R)-4-hydroxy-2-(((S)-1-(4-(4-methylthiazol-5-yl)phenyl)ethyl)carbamoyl)pyrrolidin-1-yl)-3,3-dimethyl-1-oxobutan-2-yl)amino)-7-oxoheptyl)oxy)-2-methylphenyl)picolinic acid]
A (Ymin < 50%) | – | Cc1ncsc1-c1ccc([C@H](C)NC(=O)[C@@H]2C[C@@H](O)CN2C(=O)[C@@H](NC(=O)C(F)(F)[C@H]2CC[C@H](Oc3cccc(-c4ccc(N5CCc6cccc(C(=O)Nc7nc8ccccc8s7)c6C5)nc4C(=O)O)c3C)CC2)C(C)(C)C)cc1 [Compound 144a]
C (Ymin ≥ 70%) | – | Cc1ncsc1-c1ccc([C@H](C)NC(=O)[C@@H]2C[C@@H](O)CN2C(=O)[C@@H](NC(=O)C(F)(F)[C@H]2CC[C@@H](Oc3cccc(-c4ccc(N5CCc6cccc(C(=O)Nc7nc8ccccc8s7)c6C5)nc4C(=O)O)c3C)CC2)C(C)(C)C)cc1 [Compound 144b]
